Each structure is given as a SMILES string.

The text below walks through data of patent US8119656B2, “Inhibitors of the influenza virus non-structural 1 protein” (The Board of Regents of the University of Texas System, priority 2007, dated 2012).

Experiment [1] deals with influenza virus (WSN). It is filed as cell-based.
Experiment [2] has as its system mRNA export block induced by influenza virus infection and mediated by NS1. It counts as cell-based, influenza virus (WSN).
The target of experiment [3] is T1, NS1 protein (Influenza A virus, UniProt P03496).
T1 construct: expressed in transfected cells; host or cells: 293T cells
It counts as cell-based.

Experiment [4] deals with Renilla luciferase.
For experiment [5], the system named is firefly luciferase. It is filed as cell-based.
Experiment [6] deals with influenza virus. As to the kind of experiment: Inhibition of virus killing in human bronchial epithelial cells (infection assay). The conditions noted are these: purity and concentration verified. It counts as cell-based. The source says: FIG. 7. […] Analogs in the library are related structures which provide structure-activity information. The z score is the compound value minus the experimental mean value divided by the standard deviation of the experimental population.
It is important to note, that with the exception of one compound (8 in FIG. 7), the values shown are from the screening experiments using compounds for which only estimated concentrations and solubilities were available. Inhibitor 8 has been purchased in large quantities from Chemical Diversity Laboratories (San Diego, Calif.) and its purity and concentration verified prior to obtaining the data on inhibition of virus killing in human bronchial epithelial cells. […] It is possible that some of the other compounds will show improvements in potency once pure stocks of known concentration are obtained (see FIG. 7). […] From these 71 inhibitors, 8 different compound families were chosen for further analyses (see FIG. 7).

T1 sequence (P03496 whole entry): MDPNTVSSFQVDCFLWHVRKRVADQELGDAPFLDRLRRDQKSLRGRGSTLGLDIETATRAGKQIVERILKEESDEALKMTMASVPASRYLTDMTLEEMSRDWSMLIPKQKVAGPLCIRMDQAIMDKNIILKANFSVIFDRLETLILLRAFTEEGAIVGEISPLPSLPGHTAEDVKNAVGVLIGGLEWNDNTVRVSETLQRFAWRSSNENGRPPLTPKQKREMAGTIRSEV

Consider `O=C(O)CCN1C(=O)c2cccc3cccc(c23)C1=O` [Compound 8.16], for which, in experiment [1], the “WSN HA titer 24H 24 hr” value was found to be 1.00 and the “WSN HA titer 24H 36 hr” value amounted to 0.50.

With `O=C(O)CCCCCN1C(=O)c2cccc3c(N4CCCCC4)ccc(c23)C1=O` [Compound 8.3], the “Reversal of mRNA export block” value in experiment [2] (MDCK cells infected with WSN, FIG. 10 (10 μM, MOI 0.01, 48 h in FIG. 10A)) is on record as “significantly reverts the mRNA export block”. The “Reversal of mRNA export blockage” value in experiment [2] (compound at 50 μM, WSN MOI 1, 12 h (FIG. 10B)) was “significant reversal of mRNA export blockage”. Besides, in experiment [3], the “Inhibition of NS1 protein compared with compound 8” value is given as “more inhibitory of NS1 protein” and the “Score in the luciferase dependent assay” value is reported as “did not score”. Moreover, in experiment [1], the “Inhibition of virus growth compared with compound 8” value is listed as “more inhibitory of virus growth”, the “Potency for inhibiting virus growth among analogs of compound 8” value is listed as “most potent compound for inhibiting virus growth”, the “WSN HA titer 24H 24 hr” value is 0.13 and the “WSN HA titer 24H 36 hr” value was determined as 0.13. In experiment [4], the “Inhibition of Renilla luciferase expression” value is reported as “no effect”. Also, in experiment [5], the “Inhibition of firefly luciferase expression” value is on record as “inhibitor of firefly luciferase expression”.

For `CCN1C(=O)c2cccc3c([N+](=O)[O-])ccc(c23)C1=O` [Compound 8.6], the “Inhibition of NS1 protein compared with compound 8” value in experiment [3] is listed as “more inhibitory of NS1 protein”. In addition, in experiment [1], the “Inhibition of virus growth compared with compound 8” value was “more inhibitory of virus growth”, the “WSN HA titer 24H 24 hr” value is recorded as 0.13 and the “WSN HA titer 24H 36 hr” value was 0.25.

In the case of `O=C(O)CCCCCN1C(=O)c2cccc3c([N+](=O)[O-])ccc(c23)C1=O` [Compound 8.10], in experiment [1], the “WSN HA titer 24H 24 hr” value is listed as 0.13 and the “WSN HA titer 24H 36 hr” value turned out to be 0.19.

On to `O=C(O)CCCN1C(=O)c2cccc3cc([N+](=O)[O-])cc(c23)C1=O` [Compound 8.9], for which, in experiment [1], the “WSN HA titer 24H 24 hr” value turned out to be 0.50 and the “WSN HA titer 24H 36 hr” value was 0.50.

Turning to `O=C(O)CCCN1C(=O)c2cccc3c([N+](=O)[O-])ccc(c23)C1=O` [Compound 8.0], in experiment [3], the “Activity in the original screen” value is recorded as “not one of the most active compounds”. The “Potency in the infection assay” value in experiment [6] was “most potent in the infection assay”. In addition, in experiment [1], the “WSN HA titer 24H 24 hr” value was found to be 0.50 and the “WSN HA titer 24H 36 hr” value is given as 0.50.

As to `O=C(O)CCN1C(=O)c2cccc3c([N+](=O)[O-])ccc(c23)C1=O` [Compound 8.2], in experiment [1], the “WSN HA titer 24H 24 hr” value stood at 0.25 and the “WSN HA titer 24H 36 hr” value stood at 0.50.

Turning to `O=C(O)CCCCCN1C(=O)c2cccc3cccc(c23)C1=O` [Compound 8.1], in experiment [1], the “WSN HA titer 24H 24 hr” value is given as 1.00 and the “WSN HA titer 24H 36 hr” value is 0.50.
